“Also recorded” adds a separate entry of the source.
Test system: genome-wide H3K4me3 in spleen cells
Assay: ChIP-seq of H3K4me3 in spleen cells of treated mice
Assay type: in vivo, mouse
Details: 10 mg/kg/day; vs Kmt2d+/+ littermates on vehicle; FIG. 25E, 27B
Experimental: Spleens were dissected from eight mice, four from each kmt2d genotype (+/βGeo or +/+) where half of each genotype was treated with AR-42 and half with vehicle only. Spleens were minced and passed through a 40 µm cell strainer to obtain single cell suspensions. 10 million cells were used for each ChIP-seq experiment following the native chromatin immunoprecipitation protocol, as previously described (Gilfillan et al. (2012) BMC Genomics 13:645), using a ChIP-grade antibody against H3K4me3 (9727, Cell Signaling Technology, Beverly, Mass.).
Sequencing was performed using a MiSeq system (Illumina, San Diego, Calif.). 4.8-9.6 million paired-end 26 bp reads were obtained per sample (Table 2; nReads=number of reads, alignRate=fraction aligned to genome; FRIP=fraction of reads in peaks). Reads were aligned to the m. musculus genome, version mm 10, using Bowtie 2 (Langmead and Salzberg (2012) Nat. Methods. 9: 357-9). Each sample was examined with regard to alignment rate as well as FRIP (fraction of reads in peaks), a measure of the ChIP efficiency (Table 2). […] For analysis, reads were merged into one meta-sample and peak calling was performed using MACS version 1.4.2 (Zhang et al. (2008) Genome Biol. 9: R137). […] This created a peak by sample matrix of read counts. […] Fold change and overall abundance was calculated as per edgeR. […]

CC(C)[C@H](C(=O)Nc1ccc(C(=O)NO)cc1)c1ccccc1 [AR-42, (S)—N-hydroxy-4-(3-methyl-2-phenylbutanamido)benzamide]
genome-wide H3K4me3 in spleen cells of Kmt2d+/βGeo mice: genome-wide increase in H3K4me3; also recorded: overcorrection of genome-wide H3K4me3; also recorded: improved
